Data from US8163509B2, “Biological markers predictive of anti-cancer response to insulin-like growth factor-1 receptor kinase inhibitors” (The Regents of the University of Colorado, A Body Corporate, priority 2008, dated 2012).
Values belong to the molecule of their own block, whether it stands above or below them.

Tests used:
human tumor explants = experiment: In vivo growth study, primary CRC xenografts (human tumor explants); set-up: species or system athymic nude mice; details: OSI-906 40 mg/kg, 28 days
Description: In vivo Growth Studies: Five to six-week-old female athymic nude mice (Harlan Sprague Dawley) were used. The research protocol was approved by the University of Colorado Denver, Animal Care and Use Committee. Mice were caged in groups of five and kept on 12-h light/dark cycle and provided with sterilized food and water ad libitum. All of the studies were conducted in accordance with the NIH guidelines for the care and use of laboratory animals, and animals were housed in a facility accredited by the American Association for Accreditation of Laboratory Animal Care. Animals were allowed to acclimate for at least 7 days before any handling.
The primary CRC xenografts were generated according to published methodology (Rubio-Viqueira B, et al. Clin Cancer Res 2006; 12(15):4652-61.). Briefly, surgical specimens of patients operated at the University of Colorado Hospital were reimplanted s.c. to 5 mice for each patient. […] Mice were monitored daily for signs of toxicity and were weighed twice weekly. Tumor size was evaluated two times per week by caliper measurements using the following formula: tumor volume=[length×width^2][…]. Relative tumor growth index was calculated by relative tumor growth of treated mice divided by relative tumor growth of control mice since the initiation of therapy (T/C). […]

Colo320 CRC cell line = experiment: SRB proliferation assay, 72 h; type: cell-based; details: Homo sapiens, COLO 320, 0.05-5 μM, read-out: IC50, growth inhibition by PQIP (SRB)
Description: Cell Lines and Culture. […] human colon cancer cell lines, were obtained from American Type Culture Collection (Manassas, Va.). Cells were grown in RPMI medium supplemented with 10% fetal bovine serum, 1% non-essential amino acids, 1% penicillin/streptomycin and were maintained at 37° C. in an incubator under an atmosphere containing 5% CO2. The cells were routinely screened for the presence of mycoplasma (MycoAlert, Cambrex Bio Science, Baltimore, Md.) and were exposed to PQIP when they reached approximately 70% confluence.
The CRC cell lines were treated with a range of concentrations of PQIP (from 0.05-5 μM) for 72 hours.

HCT116 CRC cell line = experiment: Gene expression analysis post PQIP exposure (gene array); type: cell-based, human; details: 400 nM PQIP, 72 hours
Description: (§1) Microarray Analysis: Cells were plated at 2×106 in 6-well plates 24 h prior to harvest. After 24 hours cells were rinsed twice with PBS, and RNA was prepared using a RNeasy Plus mini kit (Qiagen, Valencia, Calif.). RNA stabilization, isolation, and microarray sample labeling were carried out using standard methods for reverse transcription and one round of in vitro transcription. HG-U133 set microarrays were hybridized with 10 μg of cRNA and processed according to the protocols of the manufacturer (Affymetrix). Hybridization signals and detection calls were generated in BioConductor, using the germa and affy software packages. Microarray data was analyzed using BRB ArrayTools v3.2 developed by Dr. Richard Simon and Amy Peng Lam.
(§2) Gene Expression Analysis Post PQIP Exposure: In order to identify genes that are modulated following exposure to PQIP, 5 sensitive and 5 resistant CRC cell lines were treated with 400 nM PQIP for 72 hours, total RNA was purified, and gene array analysis was performed as described previously. The gene expression profiles following PQIP exposure were compared to the respective untreated profiles. To characterize changes in gene expression profile, one PQIP resistant (HCT116) and one PQIP sensitive (HT29) tumor cell type was examined, and caldesmon, metallothioneins, ALDH1A1, and MAP2K6 expression levels were analyzed.

HT29 CRC cell line = experiment: as above; type: cell-based, human; details: 400 nM PQIP, 72 hours
Description: as §1, §2

IGF1R [1] = target: T1, IGF1R (Homo sapiens, UniProt P08069); experiment: Immunoprecipitation and immunoblotting, IGF-2 induced receptor autophosphorylation; type: cell-based; details: PQIP 0.4 μmol/L 3 h pre-exposure, IGF-2 100 ng/mL 10 minutes
T1 construct: endogenous in cells; host or cells: HT29 and HCT116 CRC cell lines
T1 sequence (P08069 31-1367): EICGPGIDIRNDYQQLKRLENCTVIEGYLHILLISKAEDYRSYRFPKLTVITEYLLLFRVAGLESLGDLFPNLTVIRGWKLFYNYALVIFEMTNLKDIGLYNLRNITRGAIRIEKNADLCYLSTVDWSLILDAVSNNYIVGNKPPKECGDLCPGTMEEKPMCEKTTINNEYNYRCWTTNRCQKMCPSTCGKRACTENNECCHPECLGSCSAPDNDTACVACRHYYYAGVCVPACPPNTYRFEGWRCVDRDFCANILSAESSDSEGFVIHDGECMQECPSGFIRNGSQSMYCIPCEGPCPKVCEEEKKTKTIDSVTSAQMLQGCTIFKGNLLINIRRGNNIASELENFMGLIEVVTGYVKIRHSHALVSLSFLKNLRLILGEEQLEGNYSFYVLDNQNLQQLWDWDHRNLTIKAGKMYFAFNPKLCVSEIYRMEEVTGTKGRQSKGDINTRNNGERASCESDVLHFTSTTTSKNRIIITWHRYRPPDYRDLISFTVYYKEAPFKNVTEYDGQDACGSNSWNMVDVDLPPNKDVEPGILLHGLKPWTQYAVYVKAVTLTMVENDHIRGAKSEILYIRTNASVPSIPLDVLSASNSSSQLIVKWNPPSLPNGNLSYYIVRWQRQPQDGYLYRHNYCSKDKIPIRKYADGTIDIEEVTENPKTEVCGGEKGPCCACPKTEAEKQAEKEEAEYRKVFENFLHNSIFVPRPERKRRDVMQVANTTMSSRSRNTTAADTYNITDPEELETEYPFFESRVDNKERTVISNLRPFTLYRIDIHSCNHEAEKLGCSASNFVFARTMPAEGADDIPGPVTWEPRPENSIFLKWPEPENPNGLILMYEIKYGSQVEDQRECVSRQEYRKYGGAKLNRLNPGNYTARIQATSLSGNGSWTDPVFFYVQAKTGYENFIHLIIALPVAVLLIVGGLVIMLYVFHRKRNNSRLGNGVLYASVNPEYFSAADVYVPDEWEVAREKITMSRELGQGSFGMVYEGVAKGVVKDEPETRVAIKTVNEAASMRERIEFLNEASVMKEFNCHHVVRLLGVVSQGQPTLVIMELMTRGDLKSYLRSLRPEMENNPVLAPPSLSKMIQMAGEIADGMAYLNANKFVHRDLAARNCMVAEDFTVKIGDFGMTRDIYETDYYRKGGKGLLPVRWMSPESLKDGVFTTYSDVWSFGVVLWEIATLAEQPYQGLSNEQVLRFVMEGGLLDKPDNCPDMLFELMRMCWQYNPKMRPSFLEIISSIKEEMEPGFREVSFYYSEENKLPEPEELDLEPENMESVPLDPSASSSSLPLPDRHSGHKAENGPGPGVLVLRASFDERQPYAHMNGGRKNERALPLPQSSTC
From the text: Total protein was quantified using the BioRad Dc Protein Assay (BioRad, Hercules, Calif.).

IGF1R [2] = target: T1, IGF1R; experiment: Meso Scale Discovery (MSD) assay of phosphorylated IGF1R; type: cell-based; details: HT29 and HCT116, 72 h
Description: Detection of IGF1R using Meso Scale Discovery assays (MSD): HT29 and HCT116 CRC cell lines were seeded into 6-well plates, allowed to attach for 24 hours and exposed to PQIP and chemotherapy (SN38, or Oxaliplatin) alone or in combination for 72 h. Following exposure, cells were rinsed with PBS and scraped into RIPA lysis buffer containing protease inhibitors, EDTA, NaF, and sodium orthovanadate. Total protein was quantified using the BioRad Dc Protein Assay (BioRad, Hercules, Calif.). Fifty micrograms of protein in 25 μL was added per well for MSD detection of phosphorylated IGF-1R according to manufacturer's instructions (Meso Scale Discovery, Gaithersburg, Md.).
Cells were exposed to PQIP (0.4 μmol/L) and chemotherapy (SN38 0.004 μmol/L, or Oxaliplatin 1.0 μmol/L) alone or in combination for 72 h. Protein was extracted and analyzed for phospho/total IGF1R levels using a Meso Scale Discovery (MSD; Gaithersburg, Md. 20877) assay.

Structure (SMILES): C[C@]1(O)C[C@@H](c2nc(-c3ccc4ccc(-c5ccccc5)nc4c3)c3c(N)nccn32)C1 [OSI-906, cis-3-[8-amino-1-(2-phenyl-quinolin-7-yl)-imidazo[1,5-a]pyrazin-3-yl]-1-methyl-cyclobutanol]
TGI (relative tumor growth index, T/C) (human tumor explants; three explants predicted as resistant): 130-200% | TGI (relative tumor growth index, T/C) (human tumor explants; two explants predicted as sensitive): 21-28%

IC50 (Colo320 CRC cell line): < 500 nM | IGF-2 induced tyrosine autophosphorylation of IGF1R (IGF1R [1]; HCT116): almost fully inhibits | IGF-2 induced tyrosine autophosphorylation of IGF1R (IGF1R [1]; HT29): almost fully inhibits | effect on phosphorylated IGF1R, PQIP in combination with SN38 or Oxaliplatin (IGF1R [2]; PQIP 0.4 μmol/L plus SN38 0.004 μmol/L or Oxaliplatin 1.0 μmol/L): inhibited | effect on phosphorylated IGF1R, agent alone (IGF1R [2]; PQIP 0.4 μmol/L, SN38 0.004 μmol/L, Oxaliplatin 1.0 μmol/L): inhibited
Structure (SMILES): CN1CCN([C@H]2C[C@@H](c3nc(-c4ccc5ccc(-c6ccccc6)nc5c4)c4c(N)nccn43)C2)CC1 [PQIP, cis-3-[3-(4-Methyl-piperazin-1-yl)-cyclobutyl]1-(2-phenyl-quinolin-7-yl)-imidazo[1,5-a]pyrazin-8-ylamine]
Fold change of post exposure PQIP to untreated, ALDH1A1 expression (HCT116 CRC cell line): 2.3 fold | Fold change of post exposure PQIP to untreated, CALD1 expression (HCT116 CRC cell line): 1.9 fold | Fold change of post exposure PQIP to untreated, MAP2K6 expression (HCT116 CRC cell line): 0.7 fold | Fold change of post exposure PQIP to untreated, MT1E expression (HCT116 CRC cell line): 1.2 fold | Fold change of post exposure PQIP to untreated, MT1F expression (HCT116 CRC cell line): 1.6 fold | Fold change of post exposure PQIP to untreated, MT1G expression (HCT116 CRC cell line): 1.1 fold | Fold change of post exposure PQIP to untreated, MT1H expression (HCT116 CRC cell line): 1.8 fold | Fold change of post exposure PQIP to untreated, MT1M expression (HCT116 CRC cell line): 1.5 fold | Fold change of post exposure PQIP to untreated, MT1X expression (HCT116 CRC cell line): 2.0 fold | Fold change of post exposure PQIP to untreated, MT2A expression (HCT116 CRC cell line): 1.0 fold | Fold change of post exposure PQIP to untreated, ALDH1A1 expression (HT29 CRC cell line): 0.56 fold | Fold change of post exposure PQIP to untreated, CALD1 expression (HT29 CRC cell line): 1.5 fold | Fold change of post exposure PQIP to untreated, MAP2K6 expression (HT29 CRC cell line): 0.87 fold | Fold change of post exposure PQIP to untreated, MT1E expression (HT29 CRC cell line): 12.5 fold | Fold change of post exposure PQIP to untreated, MT1F expression (HT29 CRC cell line): 10.8 fold | Fold change of post exposure PQIP to untreated, MT1G expression (HT29 CRC cell line): 4.5 fold | Fold change of post exposure PQIP to untreated, MT1H expression (HT29 CRC cell line): 11.0 fold | Fold change of post exposure PQIP to untreated, MT1M expression (HT29 CRC cell line): 15.2 fold | Fold change of post exposure PQIP to untreated, MT1X expression (HT29 CRC cell line): 16.0 fold | Fold change of post exposure PQIP to untreated, MT2A expression (HT29 CRC cell line): 8.1 fold
